# Data as given in US8088806B2 (Achillion Pharmaceuticals, Inc., priority 2005, dated 2012).
# System: HCV replicon
# Assay: Replicon based assay of HCV replication inhibition (NPT ELISA)
# Assay type: cell-based, Hepatitis C virus
# Settings: Hepatitis C virus, Huh-7, 72 h, Table III; Huh-7 HCV replicon-containing cells, three days; read-out: Activity
# In short: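 Huh-7 cells carrying a bicistronic HCV replicon (neo, EMCV-IRES-driven NS3–NS5B) treated overnight after seeding with usually 6 concentrations, 10 to 0.03 micromolar, for three days at 37° C without G418. Replication read as NPT level by captured ELISA; matched-DMSO wells and interferon alpha as controls.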
row,Structure (SMILES),EC50 [nM]
1,"CCCCCCCOc1ccc(C(=O)Nc2nc(-c3cccnc3)cs2)cc1 [compound 602, 4-(heptyloxy)-N-(4-(pyridin-3-yl)thiazol-2-yl)benzamide]",> 10000
2,"CCCCCOc1ccc(Nc2nc(-c3cncc(C(=O)OCC)c3)cs2)cc1C(F)(F)F [compound 603, ethyl 5-(2-(3-(trifluoromethyl)-4-(pentyloxy)phenylamino)thiazol-4-yl)pyridine-3-carboxylate]",1000 to 10000
3,"CCCCCCCCOc1ccc(Nc2nccs2)cc1C(F)(F)F [compound 605, N-(3-(trifluoromethyl)-4-(octyloxy)phenyl)thiazol-2-amine]",< 1000
4,"FC(F)(F)c1cc(Nc2nc(-c3cnccn3)cs2)ccc1OC1CCCC1 [compound 606, N-(4-(cyclopentyloxy)-3-(trifluoromethyl)phenyl)-4-(pyrazin-2-yl)thiazol-2-amine]",< 1000
5,"CCCCCOc1ccc(Nc2nc(Cc3ccc(F)c(F)c3)cs2)cc1C(F)(F)F [compound 607, 4-(3,4-difluorobenzyl)-N-(3-(trifluoromethyl)-4-(pentyloxy)phenyl)thiazol-2-amine]",1000 to 10000
6,"CCCCCCCCOc1ccc(Nc2nc(Cc3ccc(F)c(F)c3)cs2)cc1 [compound 608, 4-(3,4-difluorobenzyl)-N-(4-(octyloxy)phenyl)thiazol-2-amine]",> 10000
7,"CCCCCCCCOc1ccc(Nc2nc(Cc3ccc(F)c(F)c3)cs2)cc1C(F)(F)F [compound 609, 4-(3,4-difluorobenzyl)-N-(3-(trifluoromethyl)-4-(octyloxy)phenyl)thiazol-2-amine]",1000 to 10000
8,"CCCCCOc1ccc(Nc2nc(Cc3ccc(F)c(F)c3)cs2)cc1F [compound 610, 4-(3,4-difluorobenzyl)-N-(3-fluoro-4-(pentyloxy)phenyl)thiazol-2-amine]",> 10000
9,"CCCCCN(C)c1ccc(Nc2nc(Cc3ccc(F)c(F)c3)cs2)cc1C(F)(F)F [compound 611, N^4-(4-(3,4-difluorobenzyl)thiazol-2-yl)-2-(trifluoromethyl)-N^1-methyl-N^1-pentylbenzene-1,4-diamine]",> 10000
10,"CCCCCCCCN(C)c1ccc(Nc2nc(Cc3ccc(F)c(F)c3)cs2)cc1 [compound 612, N^1-(4-(3,4-difluorobenzyl)thiazol-2-yl)-N^4-methyl-N^4-octylbenzene-1,4-diamine]",> 10000
11,"CCCCCCCCOc1ccc(Nc2nc(-c3ccc(C#N)nc3)cs2)cc1C(F)(F)F [compound 613, 5-(2-(3-(trifluoromethyl)-4-(octyloxy)phenylamino)thiazol-4-yl)pyridine-2-carbonitrile]",< 1000
12,N#Cc1ccc(-c2csc(Nc3ccc(OCCCC4CCCC4)c(C(F)(F)F)c3)n2)cn1 [compound 614],< 1000
13,"CCCCCOc1ccc(Nc2nc(-c3ccc(C#N)nc3)cs2)cc1F [compound 615, 5-(2-(3-fluoro-4-(pentyloxy)phenylamino)thiazol-4-yl)pyridine-2-carbonitrile]",< 1000
14,"N#Cc1ccc(-c2csc(Nc3ccc(OC4CCCC4)c(C(F)(F)F)c3)n2)cn1 [compound 616, 5-(2-(4-(cyclopentyloxy)-3-(trifluoromethyl)phenylamino)thiazol-4-yl)pyridine-2-carbonitrile]",< 1000
15,"CCCCCCCCOc1ccc(Nc2nc(-c3cncnc3)cs2)cc1C(F)(F)F [compound 617, N-(3-(trifluoromethyl)-4-(octyloxy)phenyl)-4-(pyrimidin-5-yl)thiazol-2-amine]",< 1000
16,"CCCCCOc1ccc(Nc2nc(-c3cncnc3)cs2)cc1F [compound 618, N-(3-fluoro-4-(pentyloxy)phenyl)-4-(pyrimidin-5-yl)thiazol-2-amine]",< 1000
17,"CCCCCCCCOc1ccc(Nc2nc(-c3cnc(Cl)nc3)cs2)cc1 [compound 619, 4-(2-chloropyrimidin-5-yl)-N-(4-(octyloxy)phenyl)thiazol-2-amine]",< 1000

row,Structure (SMILES),EC50 [nM]
1,"CCCCCCCCOc1ccc(Nc2nc(-c3cnc(Cl)nc3)cs2)cc1C(F)(F)F [compound 620, 4-(2-chloropyrimidin-5-yl)-N-(3-(trifluoromethyl)-4-(octyloxy)phenyl)thiazol-2-amine]",< 1000
2,"FC(F)(F)c1cc(Nc2nc(-c3cncnc3)cs2)ccc1OC1CCCC1 [compound 621, N-(4-(cyclopentyloxy)-3-(trifluoromethyl)phenyl)-4-(pyrimidin-5-yl)thiazol-2-amine]",< 1000
3,"FC(F)(F)c1cc(Nc2nccs2)ccc1OCCCC1CCCC1 [compound 622, N-(4-(3-cyclopentylpropoxy)-3-(trifluoromethyl)phenyl)thiazol 2-amine]",< 1000
4,"CCCCCCCCOc1ccc(Nc2nccs2)cc1 [compound 623, N-(4-(octyloxy)phenyl)thiazol-2-amine]",< 1000
5,"CCCCCCCCN(C)c1ccc(Nc2nccs2)cc1C(F)(F)F [compound 624, 2-(trifluoromethyl)-N^1-methyl-N^1-octyl-N^4-(thiazol-2-yl)benzene-1,4-diamine]",< 1000
6,"CCCCCOc1ccc(Nc2nc(Cc3ccc(F)cc3)cs2)cc1C(F)(F)F [compound 627, 4-(4-fluorobenzyl)-N-(3-(trifluoromethyl)-4-(pentyloxy)phenyl)thiazol-2-amine]",< 1000
7,"CCCCCCCCOc1ccc(Nc2nc(Cc3ccc(F)cc3)cs2)cc1 [compound 628, 4-(4-fluorobenzyl)-N-(4-(octyloxy)phenyl)thiazol-2-amine]",1000 to 10000
8,"CCCCCCCCOc1ccc(Nc2nc(Cc3ccc(F)cc3)cs2)cc1C(F)(F)F [compound 629, 4-(4-fluorobenzyl)-N-(3-(trifluoromethyl)-4-(octyloxy)phenyl)thiazol-2-amine]",< 1000
9,"CCCCCOc1ccc(Nc2nc(Cc3ccc(F)cc3)cs2)cc1F [compound 630, 4-(4-fluorobenzyl)-N-(3-fluoro-4-(pentyloxy)phenyl)thiazol-2-amine]",> 10000
10,"CCCCCN(C)c1ccc(Nc2nc(Cc3ccc(F)cc3)cs2)cc1C(F)(F)F [compound 631, N^4-(4-(4-fluorobenzyl)thiazol-2-yl)-2-(trifluoromethyl)-N^1-methyl-N^1-pentylbenzene-1,4-diamine]",> 10000
11,"CCCCCCCCN(C)c1ccc(Nc2nc(Cc3ccc(F)cc3)cs2)cc1 [compound 632, N^1-(4-(4-fluorobenzyl)thiazol-2-yl)-N^4-methyl-N^4-octylbenzene-1,4-diamine]",> 10000
12,"CCCCCOc1ccc(Nc2nc(Cc3ccc(Cl)cc3)cs2)cc1C(F)(F)F [compound 633, 4-(4-chlorobenzyl)-N-(3-(trifluoromethyl)-4-(pentyloxy)phenyl)thiazol-2-amine]",1000 to 10000
13,"CCCCCCCCOc1ccc(Nc2nc(Cc3ccc(Cl)cc3)cs2)cc1 [compound 634, 4-(4-chlorobenzyl)-N-(4-(octyioxy)phenyl)thiazol-2-amine]",> 10000
14,"CCCCCCCCOc1ccc(Nc2nc(Cc3ccc(Cl)cc3)cs2)cc1C(F)(F)F [compound 635, 4-(4-chlorobenzyl)-N-(3-(trifluoromethyl)-4-(octyloxy)phenyl)thiazol-2-amine]",1000 to 10000
15,"CCCCCOc1ccc(Nc2nc(Cc3ccc(Cl)cc3)cs2)cc1F [compound 636, 4-(4-chlorobenzyl)-N-(3-fluoro-4-(pentyloxy)phenyl)thiazol-2-amine]",> 10000
16,"CCCCCCCCN(C)c1ccc(Nc2nc(Cc3ccc(Cl)cc3)cs2)cc1 [compound 638, N^1-(4-(4-chlorobenzyl)thiazol-2-yl)-N^4-methyl-N^4-octylbenzene-1,4-diamine]",1000 to 10000
